# Assay results taken from patent US20220241311A1, “METHODS AND MATERIALS FOR TREATING GLYCOSYLATION DISORDERS” (priority 2018, published 2022).
# Key:
# [1] = system: PGM1 deficient cell lines; experiment: Lipid-linked and protein-linked oligosaccharide analysis
# [2] = cited from earlier work
smiles,measurement,setting,value
"O=C[C@H](O)[C@@H](O)[C@@H](O)[C@H](O)CO [D-gal, D-galactose]",PLO profile,[1]; all four patient cell lines,In none of the patients galactose supplementation had an effect
same,Shortened LLO (Man9GlcNAc2-PP-dolichol),[1]; patient 8,No improvement
same,Shortened LLO (Man9GlcNAc2-PP-dolichol),"[1]; patients 1, 2, cell-line 2013Y, 10 mM D-gal, LLO profile similar to control",reduction of shortened LLO
same,Peak concentration of D-gal in blood,[2]; 1.0 g/kg dose,2.25 mM
same,Blood concentration of D-gal,[2]; oral dose of 0.3 g/kg,750 µM
same,Blood peak concentration,[2]; oral dose of 1.5 g/kg,3.5 mM
